{"source": "paper PMC6289772", "about": "(Cancer, 2018)", "key": {"[1]": {"assay": "Axitinib plasma pharmacokinetics, phase 1 trial", "type": "in vivo"}, "[2]": {"assay": "Toxicity / dose-limiting toxicity evaluation, phase 1 trial", "type": "in vivo"}, "[3]": {"system": "recurrent or refractory solid tumors", "assay": "Tumor response assessment", "type": "in vivo, human (children and adolescents)"}, "[4]": {"type": "in vivo, human (children and adolescents)"}, "[5]": {"conditions": "cited from earlier work"}, "[6]": {"conditions": "median (range), Dose Level 2.4 mg/m^2, Day 1 (n=12)"}, "[7]": {"conditions": "median (range), Dose Level 3.2 mg/m^2, Day 1 (n=6)"}}, "data": [{"compound": "CNC(=O)c1ccccc1Sc1ccc2c(/C=C/c3ccccn3)n[nH]c2c1", "note": "[Axitinib]", "values": [{"measurement": "median oral clearance CL/F", "setting": "[1]; Day 1, children <12 years", "result": 28.6, "unit": "L/h/m^2"}, {"measurement": "median oral clearance CL/F", "setting": "[1]; Day 1, children ≥12 years", "result": 19.7, "unit": "L/h/m^2"}, {"measurement": "median oral clearance CL/F", "setting": "[1]; Day 1, females", "result": 19.7, "unit": "L/h/m^2"}, {"measurement": "median oral clearance CL/F", "setting": "[1]; Day 1, males", "result": 24.2, "unit": "L/h/m^2"}, {"measurement": "half-life", "setting": "[1]; human, plasma, oral", "result": 2.4, "unit": "h"}, {"measurement": "AUC(0-t)", "setting": "[1]; human, plasma, oral, 2.4 mg/m2, AUC0–8h, median (range), Dose Level 2.4 mg/m^2, Day 1 (n=12)", "result": 91, "unit": "ng·h/mL"}, {"measurement": "AUC(0-t)", "setting": "[1]; human, plasma, oral, 2.4 mg/m2, AUC0–8h, median (range), Dose Level 2.4 mg/m^2, Day 8 (n=12)", "result": 147, "unit": "ng·h/mL"}, {"measurement": "Cmax", "setting": "[1]; human, plasma, oral, 2.4 mg/m2, Cmax, median (range), Dose Level 2.4 mg/m^2, Day 1 (n=12)", "result": 23.8, "unit": "ng/mL"}, {"measurement": "Cmax", "setting": "[1]; human, plasma, oral, 2.4 mg/m2, Cmax, median (range), Dose Level 2.4 mg/m^2, Day 8 (n=12)", "result": 47.4, "unit": "ng/mL"}, {"measurement": "half-life", "setting": "[1]; human, plasma, oral, 2.4 mg/m2, Half life, median (range), Dose Level 2.4 mg/m^2, Day 1 (n=12)", "result": 2.2, "unit": "h"}, {"measurement": "half-life", "setting": "[1]; human, plasma, oral, 2.4 mg/m2, Half life, median (range), Dose Level 2.4 mg/m^2, Day 8 (n=12)", "result": 2.5, "unit": "h"}, {"measurement": "Tmax", "setting": "[1]; human, plasma, oral, 2.4 mg/m2, Tmax, median (range), Dose Level 2.4 mg/m^2, Day 1 (n=12)", "result": 2, "unit": "h"}, {"measurement": "Tmax", "setting": "[1]; human, plasma, oral, 2.4 mg/m2, Tmax, median (range), Dose Level 2.4 mg/m^2, Day 8 (n=12)", "result": 1.5, "unit": "h"}, {"measurement": "AUC(0-t)", "setting": "[1]; human, plasma, oral, 3.2 mg/m2, AUC0–8h, median (range), Dose Level 3.2 mg/m^2, Day 1 (n=6)", "result": 134, "unit": "ng·h/mL"}, {"measurement": "AUC(0-t)", "setting": "[1]; human, plasma, oral, 3.2 mg/m2, AUC0–8h, median (range), Dose Level 3.2 mg/m^2, Day 8 (n=5)", "result": 140, "unit": "ng·h/mL"}, {"measurement": "Cmax", "setting": "[1]; human, plasma, oral, 3.2 mg/m2, Cmax, median (range), Dose Level 3.2 mg/m^2, Day 1 (n=6)", "result": 38, "unit": "ng/mL"}, {"measurement": "half-life", "setting": "[1]; human, plasma, oral, 3.2 mg/m2, Half life, median (range), Dose Level 3.2 mg/m^2, Day 1 (n=6)", "result": 2.6, "unit": "h"}, {"measurement": "half-life", "setting": "[1]; human, plasma, oral, 3.2 mg/m2, Half life, median (range), Dose Level 3.2 mg/m^2, Day 8 (n=5)", "result": 1.8, "unit": "h"}, {"measurement": "Tmax", "setting": "[1]; human, plasma, oral, 3.2 mg/m2, Tmax, median (range), Dose Level 3.2 mg/m^2, Day 1 (n=6)", "result": 2, "unit": "h"}, {"measurement": "Tmax", "setting": "[1]; human, plasma, oral, 3.2 mg/m2, Tmax, median (range), Dose Level 3.2 mg/m^2, Day 8 (n=5)", "result": 2, "unit": "h"}, {"measurement": "half-life", "setting": "[1]; human, plasma, oral, half-life (range), all patients", "result": "0.7 to 5.2", "unit": "h"}, {"measurement": "half-life", "setting": "[1]; human, plasma, oral, median half-life, Day 8, all patients", "result": 2.5, "unit": "h"}, {"measurement": "accumulation ratio (day 8 AUC0–8h versus day 1 AUC0–8h)", "setting": "[1]; median (range), all patients", "result": "1.8 (0.3 – 4.7)"}, {"measurement": "Cl/F", "setting": "[1]; [6]", "result": "28.0 (9.8–230.1) L/h"}, {"measurement": "Cl/m^2", "setting": "[1]; [6]", "result": "21.4 (6.0–230.1) L/h/m^2"}, {"measurement": "V/F", "setting": "[1]; [6]", "result": "74.9 (43.6–888.7) L"}, {"measurement": "V/m^2", "setting": "[1]; [6]", "result": "67.4 (39.1–888.7) L/m^2"}, {"measurement": "Cl/F", "setting": "[1]; [7]", "result": "32.6 (14.2–65.2) L/h"}, {"measurement": "Cl/m^2", "setting": "[1]; [7]", "result": "19.9 (11.4–61.5) L/h/m^2"}, {"measurement": "V/F", "setting": "[1]; [7]", "result": "99.4 (48.9–150.6) L"}, {"measurement": "V/m^2", "setting": "[1]; [7]", "result": "65.5 (39.1–101.6) L/m^2"}, {"measurement": "Cmax", "setting": "[1]; median (range), Dose Level 3.2 mg/m^2, Day 8 (n=5)", "result": "41.5 (15.5–76.5) ng/mL"}, {"measurement": "Abdominal pain, Grade 2", "setting": "[2]; human, in vivo", "result": 1}, {"measurement": "Alanine aminotransferase increased, Grade 2", "setting": "[2]; human, in vivo", "result": 1}, {"measurement": "Anemia, Grade 1", "setting": "[2]; human, in vivo", "result": 1}, {"measurement": "Anorexia, Grade 1", "setting": "[2]; human, in vivo", "result": 1}, {"measurement": "Fatigue, Grade 1", "setting": "[2]; human, in vivo", "result": 3}, {"measurement": "Fatigue, Grade 2", "setting": "[2]; human, in vivo", "result": 1}, {"measurement": "Headache, Grade 2", "setting": "[2]; human, in vivo", "result": 1}, {"measurement": "Hemoglobin increased, Grade 1", "setting": "[2]; human, in vivo", "result": 1}, {"measurement": "Hemoglobin increased, Grade 2", "setting": "[2]; human, in vivo", "result": 2}, {"measurement": "Hemoglobin increased, Grade 3", "setting": "[2]; human, in vivo", "result": 1}, {"measurement": "Hypertension, Grade 2", "setting": "[2]; human, in vivo", "result": 3}, {"measurement": "Hypertension, Grade 3", "setting": "[2]; human, in vivo", "result": 1}, {"measurement": "Hypophosphatemia, Grade 1", "setting": "[2]; human, in vivo", "result": 1}, {"measurement": "Hypothyroidism, Grade 2", "setting": "[2]; human, in vivo", "result": 2}, {"measurement": "Leukopenia, Grade 1", "setting": "[2]; human, in vivo", "result": 1}, {"measurement": "Lipase increased, Grade 2", "setting": "[2]; human, in vivo", "result": 2}, {"measurement": "Lipase increased, Grade 3", "setting": "[2]; human, in vivo", "result": 1}, {"measurement": "Lymphopenia, Grade 1", "setting": "[2]; human, in vivo", "result": 1}, {"measurement": "Nausea, Grade 1", "setting": "[2]; human, in vivo", "result": 1}, {"measurement": "Nausea, Grade 2", "setting": "[2]; human, in vivo", "result": 2}, {"measurement": "Neutropenia, Grade 2", "setting": "[2]; human, in vivo", "result": 2}, {"measurement": "Palmar-plantar erythrodysesthesia syndrome, Grade 1", "setting": "[2]; human, in vivo", "result": 1}, {"measurement": "Palmar-plantar erythrodysesthesia syndrome, Grade 2", "setting": "[2]; human, in vivo", "result": 1}, {"measurement": "Proteinuria, Grade 1", "setting": "[2]; human, in vivo", "result": 2}, {"measurement": "Proteinuria, Grade 2", "setting": "[2]; human, in vivo", "result": 1}, {"measurement": "Vomiting, Grade 1", "setting": "[2]; human, in vivo", "result": 1}, {"measurement": "Anemia, Grade 1", "setting": "[2]; human, in vivo, 1 cycle", "result": 3}, {"measurement": "Anemia, Grade 2", "setting": "[2]; human, in vivo, 1 cycle", "result": 2}, {"measurement": "Hemoglobin increased, Grade 1", "setting": "[2]; human, in vivo, 1 cycle", "result": 3}, {"measurement": "Hypertension, Grade 2", "setting": "[2]; human, in vivo, 1 cycle", "result": 4}, {"measurement": "Hypophosphatemia, Grade 1", "setting": "[2]; human, in vivo, 1 cycle", "result": 2}, {"measurement": "Hypothyroidism, Grade 1", "setting": "[2]; human, in vivo, 1 cycle", "result": 1}, {"measurement": "Hypothyroidism, Grade 2", "setting": "[2]; human, in vivo, 1 cycle", "result": 2}, {"measurement": "Leukopenia, Grade 1", "setting": "[2]; human, in vivo, 1 cycle", "result": 1}, {"measurement": "Lipase increased, Grade 1", "setting": "[2]; human, in vivo, 1 cycle", "result": 1}, {"measurement": "Lipase increased, Grade 2", "setting": "[2]; human, in vivo, 1 cycle", "result": 1}, {"measurement": "Lymphopenia, Grade 1", "setting": "[2]; human, in vivo, 1 cycle", "result": 1}, {"measurement": "Lymphopenia, Grade 2", "setting": "[2]; human, in vivo, 1 cycle", "result": 1}, {"measurement": "Neutropenia, Grade 2", "setting": "[2]; human, in vivo, 1 cycle", "result": 1}, {"measurement": "Palmar-plantar erythrodysesthesia syndrome, Grade 2", "setting": "[2]; human, in vivo, 1 cycle", "result": 2}, {"measurement": "Proteinuria, Grade 1", "setting": "[2]; human, in vivo, 1 cycle", "result": 2}, {"measurement": "Rash acneiform, Grade 1", "setting": "[2]; human, in vivo, 1 cycle", "result": 2}, {"measurement": "Sore throat, Grade 1", "setting": "[2]; human, in vivo, 1 cycle", "result": 2}, {"measurement": "Thrombocytopenia, Grade 1", "setting": "[2]; human, in vivo, 1 cycle", "result": 1}, {"measurement": "Vomiting, Grade 1", "setting": "[2]; human, in vivo, 1 cycle", "result": 3}, {"measurement": "recommended phase 2 dose (RP2D)", "setting": "[2]; human, in vivo, po, 28 days", "result": 2.4, "unit": "mg/m^2/dose"}, {"measurement": "DLTs at dose level 1", "setting": "[2]; in vivo", "result": "No DLTs"}, {"measurement": "growth plate abnormalities (tibia radiograph)", "setting": "[2]; in vivo", "result": "No growth plate abnormalities were observed"}, {"measurement": "number of grade 3 toxicities (non-dose limiting)", "setting": "[2]; in vivo", "result": "three"}, {"measurement": "maximum tolerated and recommended dose", "setting": "[2]; orally twice daily, continuous 28-day cycles, children with refractory solid tumors", "result": 2.4, "unit": "mg/m^2/dose"}, {"measurement": "patients with partial response", "setting": "[3]; alveolar soft part sarcoma, 15 patients with reportable response", "result": "One patient"}, {"measurement": "duration of partial response", "setting": "[3]; patient with alveolar soft part sarcoma, prior to clinical progression", "result": 6, "unit": "months"}, {"measurement": "trends in AKI biomarkers (KIM-1, NGAL, IL-18) during axitinib therapy", "setting": "[4]; cycle 1 or between dose levels", "result": "no trends were identified"}, {"measurement": "increase in urine UPC ratio per cycle", "setting": "[4]; during axitinib therapy, not significant (P=0.30)", "result": 4, "unit": "%"}, {"measurement": "maximum tolerated dose (MTD) in adults", "setting": "[5]; PO BID", "result": 5, "unit": "mg"}, {"measurement": "median time to onset of grade 1–2 hypertension", "setting": "[5]; adults", "result": 16, "unit": "days"}, {"measurement": "median time to onset of grade ≥ 3 hypertension", "setting": "[5]; adults", "result": 24, "unit": "days"}, {"measurement": "patients with discontinuation due to axitinib related hypertension", "setting": "[5]; adults", "result": "< 1", "unit": "%"}, {"measurement": "patients with dose interruptions due to axitinib related hypertension", "setting": "[5]; adults", "result": 12, "unit": "%"}, {"measurement": "patients with dose modification due to axitinib related hypertension", "setting": "[5]; adults", "result": 5, "unit": "%"}]}]}
